What was measured:
H1975 66 shUNG cells = assay: Colony survival assay, H1975 66 shUNG cells; type: cell-based, human
Protocol: (§1) For cells in suspension, colony survival was determined by crystal violet staining of colonies formed after 10-day exposure of 5×10^3 cells to pemetrexed in soft agar. For adherent cells, colony survival was determined by methylene blue staining of colonies formed after 10-day exposure of 100 cells to pemetrexed in 6-well culture dishes. Only colonies containing ≥50 cells were counted. Data points represent percent of colonies relative to untreated control averaged over 3 experiments.
UNG directed shRNA and siRNA plasmids were purchased from Origene. Transfection was carried out according to manufacturer specifications. Stably transfected clones (shRNA) were selected with puromycin with subsequent expansion of a well-isolated colony of cells.

cell culture = assay: Tolerance of MX in cell culture; type: cell-based; details: MX at 3 mM
DLD1/UDG−/− cells = assay: Colony survival (clonogenic) assay, UDG−/− cells; type: cell-based, human; details: 5-FU 0-20 μM, temozolomide 0-1500 μM, cisplatin 0-40 μM
Protocol: Recombinant virus was grown in 293T cells and subsequently used to infect DLD1 cells. Selection of positively transfected clones was achieved by the addition of G418 to the culture medium. A second infection of transfected clones with Cre-recombinase adenovirus caused excision of the neomycin resistance cassette. Dflag cell line was produced by transfection of UDG expression vector in UDG^−/− cells to restore UDG activity.
Tumor cells (500-2000/dish) were plated and treated with pemetrexed (0-400 nM), 5-fluorouracil (0-20 μM), temozolomide (0-1500 μM), or cisplatin (0-40 μM). After 7 days, surviving colonies were stained with methylene blue for 30 min at room temperature and the colonies containing more than 50 cells were counted to generate survival curves.

H1299/PR-1 cells = assay: Colony survival assay, H1299/PR-1 pemetrexed-resistant subline; type: cell-based, human; details: PR-1 and PR-2 cells
Protocol: as §1
H1299 cells were exposed to step-wise increasing concentrations of pemetrexed over a period of 4 months. UNG expression was monitored in the bulk population at 2, 8, 12 and 16 weeks prior to administration of the induction dosage and at 24 weeks in a population of bulk chronically exposed cells that had been without pemetrexed for 8 weeks. H1299 cells capable of growth in 50 nM pemetrexed selection pressure were subcloned by limiting dilution in 96 well plates. Independent sublines were designated H1299/PR-1 and H1299/PR-2.

[1] = tested on: uracil in DNA of UDG−/− cells; assay: Uracil in DNA by HPLC/MS/MS, UDG−/− cells; type: cell-based, human; details: UDG−/− cells; drug 10 μM, 6-72 hr
Protocol: UDG^−/− and UDG^+/+ cells were exposed to pemetrexed (10 μM) or 5-fluorouracil (10 μM) for 6, 24, 48 and 72 hrs. At indicated time points, cells were harvested and genomic DNA was extracted by phenol/chloroform. Forty μg of DNA were incubated with 10 U of purified UDG (New England Biolabs) in 60 μL of reaction buffer at 37° C. for 2 hrs. The reaction products were dried at 35° C. in a Turbovap under a stream of nitrogen and reconstituted in 150 μL 90% acetonitrile. The analyte was retained by an Atlantis Hilis Silica analytical column (2.1×100 mm, 3.5 μM) and eluted isocratically by a mixture of 90% acetonitrile and 10% 2.0 mM ammonium formate at a flow rate of 0.2 ml/min. The detection was done by an API 3200 MS/MS mass spectrometer.

UNG−/− MEFs = details: treated UNG−/− MEFs; cited from earlier work
[2] = tested on: 293t cells expressing the bacteriophage UNG inhibitor Ugi; details: treated 293t cells expressing Ugi; cited from earlier work

SMILES | differential sensitivity of UDG−/− vs UDG+/+ cells (DLD1/UDG−/− cells) | cross-resistance of PR-1 and PR-2 cells (H1299/PR-1 cells) | cross sensitivity of UNG deficient H1975 cells (H1975 66 shUNG cells) | increase in uracil (UNG−/− MEFs) | also measured
Cc1cn([C@H]2C[C@H](O)[C@@H](CO)O2)c(=O)[nH]c1=O [thymidine] | – | – | – | – | effect of supplemental thymidine on pemetrexed sensitivity (H1975 66 shUNG cells; H1975 shUNG cells, 10 μM thymidine): rescued pemetrexed sensitivity
CON [MX, methoxyamine] | – | – | – | – | tolerance in cell culture (cell culture): well tolerated
N.N.[Cl][Pt][Cl] [cisplatin] | no significant differential sensitivity | not resistant | not | – | –
O=c1[nH]cc(F)c(=O)[nH]1 [5-FU, 5-fluorouracil] | more sensitive | cross-resistance | some cross sensitivity | 1.5 fold | uracil detected in DNA [1]: greater retention of uracil
Cc1nc2ccc(CN(C)c3ccc(C(=O)N[C@@H](CCC(=O)O)C(=O)O)s3)cc2c(=O)[nH]1 [raltitrexed] | – | cross-resistance | some cross sensitivity | – | increase in uracil [2]: 8 fold
O=c1[nH]c(=O)n([C@H]2C[C@H](O)[C@@H](CO)O2)cc1F [FdUrd] | – | – | – | 1.5 fold | –

Source: US10725042B2, “Methods of diagnosing and treating cancer” (Case Western Reserve University, priority 2012, dated 2020)
